Data published in paper PMC9732521, “Molecular mechanism of GylR-mediated regulation of glycerol metabolism in Streptomyces clavuligerus NRRL 3585” (Frontiers in Microbiology, 2022).

Key:
GylR = biological target: T1, GylR (Streptomyces clavuligerus, UniProt E2PWC0); assay: EMSA, dissociation of GylR from DNA probe BS2; type: binding; details: effector (inducer), 50 mM HEPES pH 7.5, 5 mM MgCl2, 25 °C
T1 construct: gene SCLAV_0876; coding region of gylR in pET-30a (NdeI/XhoI), C-terminal His6 tag, E. coli Rosetta (DE3), Ni-NTA; dimer by SEC

[1] = biological target: GylR (IclR family transcriptional regulator) of Streptomyces clavuligerus NRRL 3585, C-terminal His6-tagged (Streptomyces clavuligerus NRRL 3585); assay: SEC; TSKgel G3000 SWxl column (7.8 x 300 mm) on HPLC, 0.1 M Na2SO4 (pH 6.7), 0.5 ml/min; bovine serum albumin, ovalbumin and AlpJ as molecular weight standards

T1 sequence (E2PWC0 entry or part of it): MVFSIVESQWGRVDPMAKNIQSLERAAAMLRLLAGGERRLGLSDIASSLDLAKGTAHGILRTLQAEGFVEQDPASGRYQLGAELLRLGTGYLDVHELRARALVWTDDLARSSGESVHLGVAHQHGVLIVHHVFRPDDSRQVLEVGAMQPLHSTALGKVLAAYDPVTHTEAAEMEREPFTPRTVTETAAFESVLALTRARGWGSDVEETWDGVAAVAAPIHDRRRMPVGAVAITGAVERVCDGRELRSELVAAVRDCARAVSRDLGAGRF

stoichiometry N [1] | Compound | EMSA, dissociation of GylR from DNA probe BS2 (GylR)
– | O=C(CO)COP(=O)(O)O [DHAP, dihydroxyacetone phosphate] | both G3P and DHAP were capable of inducing the dissociation of GylR from BS2
– | O=P(O)(O)OC[C@H](O)CO [G3P, glycerol-3-phosphate] | both G3P and DHAP were capable of inducing the dissociation of GylR from BS2
2 | GylR (IclR family transcriptional regulator) of Streptomyces clavuligerus NRRL 3585, C-terminal His6-tagged (natural protein) | –
